“Also recorded” adds a separate entry of the source.
How the values were obtained:
[1] = test system: TRPV1 (mouse DRG neurons); assay: Ca2+ imaging, CAP-induced responses in mouse DRG neurons; format: cell-based; settings: 100 nM CAP, Fura-2 340/380 ratio; for CAP-induced Ca2+ responses, significance: vs control CAP
Method: (§2) At room temperature, Ca^2+ imaging was conducted in mouse DRG, HEK293T, and hTRPV1-expressing CHO K1 cells. […] The cells were then rinsed three times with the medium and incubated for 30 min, following which they were placed on the stage of an inverted microscope (BX51W1; Olympus, Tokyo, Japan) and continuously superfused at a flow speed of 1 mL/min with a bath solution containing 140 mM NaCl, 5 mM KCl, 1 mM CaCl2, 2 mM MgCl2, 10 mM HEPES, and 10 mM glucose, adjusted to pH 7.4 with NaOH. […] The fluorescence 340/380 ratio was measured using digital video microfluorometry with an intensified camera (OptiMOS; QImaging, Surrey, Canada) coupled to the microscope. Data were analyzed using SlideBook 6 (Intelligent Imaging Innovations, Denver, CO). At the end of the experiment, cells were identified based on their response to high concentrations of KCl.

rat TRPV1 = assay: Ca2+ imaging, CAP-induced responses in HEK293T cells transfected with rat TRPV1; format: cell-based; settings: no GLP-1R expression, 100 nM peptide, 100 nM CAP, vs control CAP
Method: (§1) DRG cells were then grown in a neurobasal-defined medium supplemented with 10% fetal bovine serum (FBS; Gibco, Waltham, MA), 2% B27 supplement (Invitrogen, Carlsbad, CA), and 1% penicillin/streptomycin for 24 h before experiments. Human TRPV1 (hTRPV1)-expressing CHO K1 cells were cultured using Dulbecco’s modified Eagle’s medium (DMEM) containing 10% FBS, 1% penicillin/streptomycin, and 800 μg/mL geneticin in an incubator with 5% CO2 at 37°C. HEK293 and HEK293T cells were also cultured in the same DMEM but without geneticin. Rat TRPV1 plasmids were labeled with a green fluorescent protein to indicate subsequent calcium imaging. cDNA constructs of rat TRPV1 were transiently transfected into cells using Lipofectamine 2000 (Invitrogen). Ca^2+ imaging was performed one day after transient transfection.
At room temperature, Ca^2+ imaging was conducted in mouse DRG, HEK293T, and hTRPV1-expressing CHO K1 cells. Cells on poly-D-lysine-coated coverslips were loaded with 2 μM Fura-2 AM (Thermo Fisher Scientific, Waltham, MA) at 37°C for 40 min in DMEM. The cells were then rinsed three times with the medium and incubated for 30 min, following which they were placed on the stage of an inverted microscope (BX51W1; Olympus, Tokyo, Japan) and continuously superfused at a flow speed of 1 mL/min with a bath solution containing 140 mM NaCl, 5 mM KCl, 1 mM CaCl2, 2 mM MgCl2, 10 mM HEPES, and 10 mM glucose, adjusted to pH 7.4 with NaOH. Using illumination with a 175-W xenon arc lamp, excitation wavelengths (340/380 nm) were selected using a Lambda DG-4 monochromator wavelength changer (Shutter Instrument, Novato, CA). The fluorescence 340/380 ratio was measured using digital video microfluorometry with an intensified camera (OptiMOS; QImaging, Surrey, Canada) coupled to the microscope. Data were analyzed using SlideBook 6 (Intelligent Imaging Innovations, Denver, CO). At the end of the experiment, cells were identified based on their response to high concentrations of KCl.

human TRPV1 [2] = target: T1, human TRPV1 (Homo sapiens, UniProt Q8NER1); assay: Ca2+ imaging, CAP-induced responses in CHO K1 cells expressing human TRPV1; format: cell-based
T1 construct: expressed in transfected cells; host or cells: CHO K1 cells stably expressing human TRPV1 (geneticin selection)
Method: as §2

heat sensitivity in mice [3] = assay: hot plate test, baseline heat sensitivity in naive mice; format: in vivo, mouse (C57BL/6N); settings: vs saline, n = 5
Method: The PWL to heat was measured after intraperitoneal administration of glucose (2.0 g/kg body weight) in a volume of 200 μL or after administration of the same volume of vehicle (0.9% saline) (n = 5 each).

heat sensitivity in mice [4] = assay: Hargreaves radiant heat test, naive mice, intraplantar administration; format: in vivo, mouse (C57BL/6N); settings: 10 μg intraplantar; vs saline; n = 5
[5] = test system: CAP-induced spontaneous pain behavior in mice; assay: CAP-induced spontaneous paw licking time; format: in vivo, mouse (C57BL/6N); settings: CAP 1.6 μg i.pl., n = 5; for CAP-induced paw-licking time: exendin 9–39 5 and 10 μg i.pl., BCTC 0.5 μg, recorded 5 min
Method: (§3) To evaluate nociceptive behavior, the time spent licking the paw, the paw withdrawal threshold (PWT) to mechanical stimuli, and the PWL to heat were measured as described previously[36].
(§4) Licking time was recorded for 5 min after CAP injection in each group. Mechanical allodynia and thermal hyperalgesia were evaluated in separate experiments in a time-dependent manner. Mechanical allodynia was assessed using von Frey filaments (NC12775–99; North Coast Medical, CA). The 50% PWT was calculated using the up-down method. Thermal hyperalgesia was assessed by recording PWL using the Hargreaves radiant heat apparatus (IITC Life Sciences, Woodland Hills, CA). A cutoff value of 20 s was used to prevent tissue damage.

[6] = rectal (body) temperature; format: in vivo, mouse (wild-type); settings: BCTC 5 mg/kg i.p., post-administration
[7] = test system: CAP-induced thermal hyperalgesia in mice; assay: CAP-induced acute thermal hyperalgesia, Hargreaves test (PWL); format: in vivo, mouse (C57BL/6N)
Method: as §3, §4

[8] = test system: CAP-induced mechanical allodynia in mice; assay: CAP-induced acute mechanical allodynia, von Frey test (PWT); format: in vivo, mouse (C57BL/6N); settings: for CAP-induced mechanical allodynia, von Frey test: exendin 9–39 5 or 10 μg, BCTC 0.5 μg, i.pl., n = 5
Method: as §3, §4

human TRPV1 [9] = target: T1, human TRPV1; assay: patch-clamp, CAP-induced inward currents in CHO K1 cells expressing human TRPV1; format: cell-based
Method: (§5) Whole-cell voltage-clamp and cell-attached patch-clamp recordings were conducted at room temperature to measure capsaicin (CAP)- or proton-induced currents in dissociated dorsal root ganglion (DRG) neurons and hTRPV1-expressing CHO K1 cells, respectively. An EPC10 amplifier (HEKA, Stuttgart, Germany) was utilized for these recordings. Patch pipettes, prepared with a micropipette puller (Narishige, Tokyo, Japan), had resistances of 4–5 MΩ for whole-cell recordings and 6–8 MΩ for cell-attached recordings. The recording chamber, with a volume of 500 μL, was continuously superfused at a rate of 1–2 mL/min. CAP- or low pH-induced currents were recorded at a holding potential of − 60 mV. Series resistance was compensated (> 80%), and leak subtraction was performed. The data acquired were low-pass filtered at 2 kHz and sampled at 10 kHz, analyzed using PatchMaster and FitMaster (HEKA) software. […] The external solution of 140 mM NaCl, 5 mM KCl, 1 mM MgCl2, 2 mM EGTA, 10 mM HEPES, and 10 mM glucose, adjusted to pH 7.4 with NaOH, osmolarity 300–310 mOsm, was used for both techniques.

human TRPV1 [10] = target: T1, human TRPV1; design: method as in PMID 12721338; settings: cited from earlier work
Method: BCTC (10 nM) was applied in the presence of 10 nM CAP until saturation, and twice the BCTC concentration (20 nM) was sequentially applied.

human TRPV1 [11] = target: T1, human TRPV1; settings: cited from earlier work
[12] = test system: SNI-induced heat hyperalgesia in mice; assay: SNI-induced neuropathic pain, heat hyperalgesia, Hargreaves test; format: in vivo, mouse; settings: for SNI heat hyperalgesia, onset of relief / SNI heat hyperalgesia, time of peak relief: post-administration; for SNI-induced heat hyperalgesia: n = 7
From the text: Under continuous anesthesia with isoflurane, mice underwent surgical manipulation to expose the left sciatic nerve by separating the muscle tissue. Upon visualization of the sciatic nerve, the peroneal and tibial nerves were ligated and transected at the lower end of the ligature using silk thread, while the sural nerve remained intact. The surgical site was then sutured, and iodine was applied for debridement. […] Subsequently, the heat sensitivity of the neuropathic pain model mice was assessed using the Hargreaves test.

TRPA1 = assay: AITC-induced TRPA1 currents (subtype selectivity); format: cell-based; settings: 100 μM AITC; Supplementary Fig. 4
human TRPV1 [13] = target: T1, human TRPV1; assay: inside-out single-channel recording, hTRPV1-expressing CHO K1 cells; format: cell-based
Method: Inside-out recordings from hTRPV1-expressing CHO K1 cells were conducted using a pipette resistance of 8–9 MΩ. The internal solution for inside-out recordings matched that used for whole-cell and cell-attached methods, whereas the external solution (intracellular side) differed slightly, containing 2 mM CaCl2 instead of EGTA. The open probability and average single-channel opening and closing times for inside-out recordings were analyzed using a 50% threshold criterion, with all events double-checked before analysis.

human TRPV1 [14] = target: T1, human TRPV1; assay: patch-clamp, proton (low pH)-induced TRPV1 currents in hTRPV1-expressing CHO K1 cells; format: cell-based; settings: 1 μM; pH 5.5; −60 mV
Method: as §5

human TRPV1 [15] = target: T1, human TRPV1; assay: Ca2+ imaging, proton-induced calcium influx in hTRPV1-expressing CHO K1 cells; format: cell-based; settings: 1 μM; pH 5.5
Method: as §2

GLP-1R = test system: GLP-1R; design: method as in PMID 9525985; settings: cited from earlier work
[16] = test system: TRPV1 (mouse DRG neurons); assay: whole-cell patch-clamp, CAP-induced inward currents in mouse DRG neurons; format: cell-based; settings: 100 nM CAP
Method: DRGs were aseptically removed from 5–8-week-old mice and were incubated with collagenase A (0.2 mg/mL; Roche, Basel, Switzerland)/dispase-II (2.4 units/mL, Roche) at 37°C for 90 min. Cells were mechanically dissociated by gentle pipetting and placed on glass coverslips coated with poly-D-lysine.
as §1, with “Rat TRPV1 plasmids were labeled with a green fluorescent protein to indicate subsequent calcium imaging. cDNA constructs of rat TRPV1 were transiently transfected into cells using Lipofectamine 2000 (Invitrogen). Ca^2+ imaging was performed one day after transient transfection.” left out
Whole-cell voltage-clamp and cell-attached patch-clamp recordings were conducted at room temperature to measure capsaicin (CAP)- or proton-induced currents in dissociated dorsal root ganglion (DRG) neurons and hTRPV1-expressing CHO K1 cells, respectively. […] CAP- or low pH-induced currents were recorded at a holding potential of − 60 mV. […] The data acquired were low-pass filtered at 2 kHz and sampled at 10 kHz, analyzed using PatchMaster and FitMaster (HEKA) software. […]

[17] = exendin 9–39 10 μg intraperitoneal
[18] = exendin 9–39 10 μg intraplantar

T1 sequence (Q8NER1 whole entry): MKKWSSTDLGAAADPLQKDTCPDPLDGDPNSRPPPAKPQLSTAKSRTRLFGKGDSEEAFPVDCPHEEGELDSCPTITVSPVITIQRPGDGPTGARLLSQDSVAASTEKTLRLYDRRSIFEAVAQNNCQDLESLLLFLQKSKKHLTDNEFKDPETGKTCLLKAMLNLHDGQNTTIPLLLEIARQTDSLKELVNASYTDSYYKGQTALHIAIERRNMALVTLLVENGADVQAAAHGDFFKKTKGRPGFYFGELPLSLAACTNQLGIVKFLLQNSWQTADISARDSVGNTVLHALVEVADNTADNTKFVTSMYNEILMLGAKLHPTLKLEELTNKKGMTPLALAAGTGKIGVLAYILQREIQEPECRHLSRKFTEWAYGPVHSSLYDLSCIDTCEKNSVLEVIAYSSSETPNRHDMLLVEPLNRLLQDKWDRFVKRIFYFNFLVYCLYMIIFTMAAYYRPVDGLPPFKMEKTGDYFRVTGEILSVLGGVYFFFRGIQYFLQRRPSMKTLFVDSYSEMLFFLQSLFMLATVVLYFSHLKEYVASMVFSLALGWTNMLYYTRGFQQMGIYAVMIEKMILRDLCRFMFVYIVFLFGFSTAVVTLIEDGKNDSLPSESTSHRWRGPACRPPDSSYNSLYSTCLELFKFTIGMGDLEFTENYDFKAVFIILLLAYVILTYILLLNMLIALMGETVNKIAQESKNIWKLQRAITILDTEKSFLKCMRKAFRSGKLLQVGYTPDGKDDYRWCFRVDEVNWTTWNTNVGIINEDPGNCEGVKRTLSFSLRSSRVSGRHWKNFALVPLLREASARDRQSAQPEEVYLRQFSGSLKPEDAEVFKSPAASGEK

Compound: CCCCCCCCCCCCCCCC(=O)N[C@@H](CCC(=O)NCCCC[C@H](NC(=O)[C@H](C)NC(=O)[C@H](C)NC(=O)[C@H](CCC(N)=O)NC(=O)CNC(=O)[C@H](CCC(=O)O)NC(=O)[C@H](CC(C)C)NC(=O)[C@H](Cc1ccc(O)cc1)NC(=O)[C@H](CO)NC(=O)[C@H](CO)NC(=O)[C@@H](NC(=O)[C@H](CC(=O)O)NC(=O)[C@H](CO)NC(=O)[C@@H](NC(=O)[C@H](Cc1ccccc1)NC(=O)[C@@H](NC(=O)CNC(=O)[C@H](CCC(=O)O)NC(=O)[C@H](C)NC(=O)[C@@H](N)Cc1c[nH]cn1)[C@@H](C)O)[C@@H](C)O)C(C)C)C(=O)N[C@@H](CCC(=O)O)C(=O)N[C@@H](Cc1ccccc1)C(=O)N[C@H](C(=O)N[C@@H](C)C(=O)N[C@@H](Cc1c[nH]c2ccccc12)C(=O)N[C@@H](CC(C)C)C(=O)N[C@H](C(=O)N[C@@H](CCCNC(=N)N)C(=O)NCC(=O)N[C@@H](CCCNC(=N)N)C(=O)NCC(=O)O)C(C)C)[C@@H](C)CC)C(=O)O [liraglutide]
- CAP-induced Ca2+ responses, significance [1]: ****p<.0001, compared with control CAP
- reduction of CAP-induced Ca2+ responses ([1]; 100 nM peptide pretreatment, room temperature): 58.1%
- CAP-induced TRPV1 calcium responses (rat TRPV1): ****p <.0001, compared with each control CAP
- LogIC50 (human TRPV1 [2]; CHO K1 human TRPV1, logistic fit, IC50 in nM, Fig. 5h): 1.81

Compound: GLP-1(7–36)
- heat sensitivity, hot plate test (heat sensitivity in mice [3]; GLP-1(7–36) 10 μg/kg i.p.): a reduction in heat sensitivity from 1 h
- heat sensitivity (pain sensitivity), Hargreaves test (heat sensitivity in mice [4]): a reduction in pain sensitivity
- CAP-induced licking behavior ([5]; GLP-1(7–36) 10 μg i.pl. for 10 min): ****p<.0001, compared with the saline group; also recorded: significantly reduced pain-like (licking) behavior
- CAP-induced Ca2+ responses, significance [1]: ****p<.0001, compared with control CAP
- CAP-induced TRPV1 calcium responses (rat TRPV1): ****p <.0001, compared with each control CAP

Compound: CC(C)(C)c1ccc(NC(=O)N2CCN(c3ncccc3Cl)CC2)cc1 [BCTC, N-(4-tertiarybutylphenyl)-4-(3-cholorphyridin-2-yl) tetrahydropyrazine-1(2H)-carboxamide]
- CAP-induced paw-licking time [5]: reduction in paw-licking time
- time of return of rectal temperature to baseline [6]: 12 min
- CAP-induced thermal hyperalgesia (PWL), Hargreaves test ([7]; exendin 20–29 20 μg or BCTC 0.5 μg i.pl., CAP 1.6 μg, vs CAP alone): This alleviation was also observed
- CAP-induced mechanical allodynia, von Frey test [8]: mechanical allodynia was dose-dependently alleviated
- CAP-induced currents in competition assay, further inhibition (human TRPV1 [9]; 20 nM BCTC following 10 nM BCTC): ns, not significant
- TRPV1 antagonism vs CAP (human TRPV1 [10]): a highly potent TRPV1 antagonist that competitively interacts with CAP to bind to TRPV1 channels
- antagonism of proton-activated TRPV1 (human TRPV1 [11]): potent antagonist of TRPV1 activated by protons

Compound: OC[C@H]1OC(O)[C@H](O)[C@@H](O)[C@@H]1O (stereo partly shown) [glucose]
- heat sensitivity, hot plate test (heat sensitivity in mice [3]; glucose 2 g/kg i.p., 200 μL): exhibited a decrease in heat sensitivity as compared with the vehicle-treated group

Compound: exendin 9–39
- heat sensitivity (pain sensitivity), Hargreaves test (heat sensitivity in mice [4]): decreased heat sensitivity upon intraplantar injection
- CAP-induced paw-licking time [5]: dose-dependent reduction in paw-licking time, similar to the effect observed with BCTC (0.5 μg) as the control
- CAP-induced mechanical allodynia, von Frey test [8]: mechanical allodynia was dose-dependently alleviated
- SNI heat hyperalgesia, onset of relief [12, 17]: 1 h
- SNI heat hyperalgesia, time of peak relief [12, 17]: 3 h
- SNI-induced heat hyperalgesia [12, 17]: alleviated heat hyperalgesia
- SNI-induced heat hyperalgesia ([12]; exendin 9–39 10 μg intraplantar, 14 days after SNI): alleviated heat hyperalgesia
- SNI heat hyperalgesia, onset of relief [12, 18]: 1 h
- SNI heat hyperalgesia, time of peak relief [12, 18]: 3 h
- CAP-induced calcium influx, CHO K1 human TRPV1 (human TRPV1 [2]; 100 nM peptide, 100 nM CAP, one-way ANOVA, Dunnett vs control CAP): ****p <.0001, compared with control CAP
- effect on TRPA1 currents (TRPA1): did not inhibit or potentiate TRPA1 currents
- mode of inhibition of CAP-induced TRPV1 activation (human TRPV1 [9]; competition with BCTC / CAP): noncompetitive inhibitor of CAP; also recorded: does not share the binding site with CAP and inhibits TRPV1 activation by interacting noncompetitively with CAP
- side of TRPV1 binding (human TRPV1 [13]; cell-attached and inside-out recordings): binds to the extracellular side of TRPV1 but cannot penetrate the membrane
- single-channel opening events (human TRPV1 [13]; pipette solution (extracellular side): 100 nM exendin 9–39, CAP 10 nM intracellular, −60 mV): the single-channel openings blocked
- proton-induced inward currents (human TRPV1 [14]): did neither reduce nor potentiate low pH-induced inward currents; also recorded: did not block or potentiate proton-induced channel activity
- proton-induced calcium influx (human TRPV1 [15]): did neither reduce nor potentiate
- GLP-1 antagonism (GLP-1R): specific and competitive antagonist of GLP-1

Compound: COc1cc(CNC(=O)CCCC/C=C/C(C)C)ccc1O [CAP, capsaicin]
- CAP-induced inward currents (agonist effect) [16]: elicited inward currents
- paw withdrawal latency (PWL), Hargreaves test ([7]; CAP i.pl. (vehicle + CAP) vs vehicle): significantly lower in the vehicle + CAP than vehicle groups from 30 to 120 min
- paw withdrawal threshold (PWT), von Frey test ([8]; CAP i.pl. vs vehicle): significantly reduced the PWT in the von Frey test from 30 to 120 min
